# According to patent publication EP1644371B1, “PYRAZOLOISOQUINOLINE DERIVATIVES AS KINASE INHIBITORS” (Aventis Pharmaceuticals Inc., priority 2003, dated 2005):
# pIC50: −log10 of the molar value. Read-outs that look alike come from different tables or passages of the source.
# Legend:
# Type in all cases: cell-based
# [1] = test system: IL1 β-stimulated human peripheral blood lymphocytes; test: Cytokine release in IL1β-stimulated human peripheral blood lymphocytes (ELISA); conditions: Lymphocyte
# Description: The pyrazoloisoquinoline derivatives according to the invention were tested for inhibitory activity against NIK in various in vitro assay systems. In this connection, human peripheral blood lymphocytes were preincubated for 1 h with different concentrations of the compounds and then stimulated for 24 h with LPS or IL1 β. […] The cytotoxicity was measured by way of LDH release using a commercially obtainable test kit and the LD50 for the given compound was determined.
# [2] = test system: LPS-stimulated human peripheral blood lymphocytes; test: Cytokine release in LPS-stimulated human peripheral blood lymphocytes (ELISA); conditions: Lymphocyte
# Description: (§1) The pyrazoloisoquinoline derivatives according to the invention were tested for inhibitory activity against NIK in various in vitro assay systems. In this connection, human peripheral blood lymphocytes were preincubated for 1 h with different concentrations of the compounds and then stimulated for 24 h with LPS or IL1 β. After that, a commercially obtainable ELISA test kit was used to measure the release of TNFα in the culture supernatant, and the IC50 for the given compound was determined. The cytotoxicity was measured by way of LDH release using a commercially obtainable test kit and the LD50 for the given compound was determined.
# [3] = test system: LPS-stimulated heparinized whole human blood; test: Release of IL1β, TNFα and IL6 in LPS-stimulated heparinized whole human blood; conditions: 24 h
# Description: In another assay, heparinized whole human blood was preincubated for 1 h with different concentrations of the compounds and then stimulated with LPS for 24 h. Commercially available test kits were used to measure the release of IL1β, TNFα and IL6 in the supernatant after 24 h, and the IC50 for the given compound was determined.
# [4] = test system: human peripheral blood lymphocytes; test: Cytotoxicity by LDH release
# Description: as §1
# [5] = 1 h preincubation, 24 h stimulation, read-out: TNFα release IC50
# [6] = IL1 β-stimulated human peripheral blood lymphocytes (Table 2)
# [7] = LPS-stimulated human peripheral blood lymphocytes (Table 1)
SMILES,"pIC50 [1, 5]",pIC50 ([1]; read-out: IL6 release IC50),"pIC50 [2, 5]",pIC50 ([2]; read-out: IL6 release IC50),pIC50 ([3]; read-out: IL1β release IC50),pIC50 ([3]; read-out: IL6 release IC50),pIC50 ([3]; read-out: TNFα release IC50),"Cytotoxicity LD50 [4, 6] [µM]","Cytotoxicity LD50 [4, 7] [µM]"
"COc1cccc(-c2nc3c(C)n[nH]c3c3ccccc23)c1 [Example 2, 5-(3-Methoxyphenyl)-3-methyl-1H-pyrazolo[4,3-c]isoquinoline]",4.46,< 4.00,5.05,< 4.00,5.89,5.15,5.92,> 100,> 100
"c1ccc(-c2nc3c(-c4ccccc4)n[nH]c3c3ccccc23)cc1 [Example 1, 3,5-Diphenyl-1H-pyrazolo[4,3-c]isoquinoline]",5.30,4.10,5.72,4.10,4.48,< 4.00,4.90,>100,> 100
"Cc1n[nH]c2c1nc(-c1cccc(O)c1)c1ccccc12 [Example 3, 3-(3-Methyl-1H-pyrazolo[4,3-c]isoquinolin-5-yl)phenol]",5.10,< 4.00,5.12,4.10,4.54,< 4.00,5.30,> 100,> 100
